Like-named read-outs stand apart in the source and are kept apart here.
What was measured:
[1] = Metabolic stability in mouse liver microsomes; format: in vitro ADME; conditions: for Remaining Percentage of 60 min (%), Mouse, Tested Sample: 0.5mg/ml microsomes and 1mM NADPH; for Remaining Percentage of 60 min (%), Mouse, Negative Control: 0.5mg/ml microsomes without NADPH; for stability in MLM: 60 minutes; for Remaining Percentage of 60 min (%), Mouse, Heat-inactivated Control: heat inactivated microsomes without NADPH
Experimental: (§1) Three experiments were performed with 1) 0.5mg/ml microsomes and 1mM NADPH, 2) 0.5mg/ml microsomes without NADPH and 3) 0.5mg/ml heat inactivated microsomes without NADPH in 100mM phosphate buffer, containing 5mM magnesium chloride. […] At the indicated time points, 50μl samples were removed and stopped by addition of 4 volumes of cold acetonitrile with internal standards, 100nM alprazolam, 200nM labetalol and 2μM ketoprofen. The samples were centrifuged at 3,220 g for 40 minutes and aliquots of 100μl were subsequently diluted with 100μl of ultra-pure water and analyzed by LC/MS/MS using a (Shimadzu corporation) LC system coupled to a Shimadzu Triple Quad 5500 mass spectrometer with an ESI interface. The LC system used a Waters XSelect HSS T3 C18, 2.5μm, 2.1 x 50 mm column eluted with one of two methods using mobile phases A (water, 0.1% formic acid) and B (acetonitrile, 0.1% formic acid). […] The Shimadzu Triple Quad 5500 MS was operated with the following parameters: Ion source: Turbo spray; Ionization mode: ESI; Scan type: MRM; Collision gas: 10 L/min; Curtain gas: 30 L/min; Nebulize gas: 50 L/min; Auxiliary gas: 50 L/min; Temperature: 500°C; Ionspray voltage: +5500 V (positive MRM). All experiments were performed in duplicate. Data were analyzed using Microsoft excel, and peak areas were determined from extracted ion chromatograms.

[2] = system: Salmonella typhimurium TA98; experiment: Ames assay, strain TA98; conditions: for Mean Revertant Colony Counts TA98 SP9+: with S9; for Mean Revertant Colony Counts TA98 S9-: without S9
PH5CH8 liver cells = experiment: High-throughput hepatic de novo lipogenesis (DNL) assay, high content imaging of steatotic phenotype; format: cell-based, human; conditions: for IC50: Homo sapiens
[3] = system: HEK293 cells stably transduced with the human OCT3 transporter; experiment: Cellular oxygen consumption rate (OCR), MitoXpress Xtra; format: cell-based; conditions: HEK293 cells expressing human OCT3
Method in brief: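 HEK293 cells stably expressing human OCT3, treated with four compound concentrations; oxygen consumption followed by MitoXpress Xtra TR-F lifetime (340/650 nm) every 2 min for 2 h. Lifetime slope from the linear portion taken as OCR; FCCP (1 μM) as stimulated control, differences versus DMSO by t-test.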

[4] = system: Salmonella typhimurium TA100; conditions: for Mean Revertant Colony Counts TA-100 SP9+: with S9; for Mean Revertant Colony Counts TA-100 S9-: without S9; for fold increase in the mean number of revertant colonies, TA100: any concentration tested, vs negative control
[5] = Metabolic stability in human liver microsomes; format: in vitro ADME; conditions: for Remaining Percentage of 60 min (%), Human, Tested Sample: 0.5mg/ml microsomes and 1mM NADPH; for Remaining Percentage of 60 min (%), Human, Negative Control: 0.5mg/ml microsomes without NADPH; for Remaining Percentage of 60 min (%), Human, Heat-inactivated Control: heat inactivated microsomes without NADPH
Experimental: as §1

[6] = PH5CH8 liver cells, 10-point dose response between 1μM and 1.9nM, read-out: IC50 (uM), inhibition of steatotic phenotype in DNL assay
[7] = S1 Table, SAR for N-Substituted Phenylbenzamides, read-out: IC50
[8] = S1 Table, SAR for N-Substituted Phenylbenzamides

For `CC(C)(C)c1ccc(O)c(C(=O)Nc2ccc(C(=O)O)cc2C(F)(F)F)c1` [Compound 500873, 4-[(5-tert-butyl-2-hydroxy)amido]-3-(trifluoromethyl)benzoic acid], the “Remaining Percentage of 60 min (%), Mouse, Tested Sample” value [1] was 107.5%, the “Remaining Percentage of 60 min (%), Mouse, Negative Control” value [1] was 106.4% and the “stability in MLM” value [1] was “stable”. The “Remaining Percentage of 60 min (%), Mouse, Heat-inactivated Control” value [1] was 105.5%, the “Mean Revertant Colony Counts TA98 SP9+” value ([2]; 1.5 ug/Well) was 5.7 and the “Mean Revertant Colony Counts TA98 S9-” value ([2]; 1.5 ug/Well) was 5.0. The “Mean Revertant Colony Counts TA98 SP9+” value ([2]; 4 ug/Well) was 6.0, the “Mean Revertant Colony Counts TA98 S9-” value ([2]; 4 ug/Well) was 9.0 and the “Mean Revertant Colony Counts TA98 SP9+” value ([2]; 10 ug/Well) was 6.3. For the same compound, the “Mean Revertant Colony Counts TA98 S9-” value ([2]; 10 ug/Well) was 4.0, the “Mean Revertant Colony Counts TA98 SP9+” value ([2]; 25 ug/Well) was 9.3 and the “Mean Revertant Colony Counts TA98 S9-” value ([2]; 25 ug/Well) was 7.7. The “Mean Revertant Colony Counts TA98 SP9+” value ([2]; 64 ug/Well) was 8.3, the “Mean Revertant Colony Counts TA98 S9-” value ([2]; 64 ug/Well) was 11.7 and the “Mean Revertant Colony Counts TA98 SP9+” value ([2]; 160 ug/Well) was 10.3. The “Mean Revertant Colony Counts TA98 S9-” value ([2]; 160 ug/Well) was 10.0, the “Mean Revertant Colony Counts TA98 SP9+” value ([2]; 400 ug/Well) was 14.0 and the “Mean Revertant Colony Counts TA98 S9-” value ([2]; 400 ug/Well) was 11.7. The “Mean Revertant Colony Counts TA98 SP9+” value ([2]; 1000 ug/Well) was 16.3, the “Mean Revertant Colony Counts TA98 S9-” value ([2]; 1000 ug/Well) was 14.0 and the “fold increase in revertant colonies, TA98” value ([2]; 1000 μg/well in the absence of S9 mix) was no less than 2 fold. The IC50 (PH5CH8 liver cells; [6]) was 0.005 µM, the IC50 (PH5CH8 liver cells; [7]) was 0.0046 µM and the Active/Inactive (PH5CH8 liver cells; [8]) was “Active”. The “change in respiration / oxygen consumption rate (OCR)” value ([3]; compared to DMSO control, 2 hours) was “no change in respiration”, the “Mean Revertant Colony Counts TA-100 SP9+” value ([4]; 1.5 ug/Well) was 22.3 and the “Mean Revertant Colony Counts TA-100 S9-” value ([4]; 1.5 ug/Well) was 33.0. For the same compound, the “Mean Revertant Colony Counts TA-100 SP9+” value ([4]; 4 ug/Well) was 18.3, the “Mean Revertant Colony Counts TA-100 S9-” value ([4]; 4 ug/Well) was 31.7 and the “Mean Revertant Colony Counts TA-100 SP9+” value ([4]; 10 ug/Well) was 20.7. For the same compound, the “Mean Revertant Colony Counts TA-100 S9-” value ([4]; 10 ug/Well) was 28.3, the “Mean Revertant Colony Counts TA-100 SP9+” value ([4]; 25 ug/Well) was 16.7 and the “Mean Revertant Colony Counts TA-100 S9-” value ([4]; 25 ug/Well) was 25.0. For the same compound, the “Mean Revertant Colony Counts TA-100 SP9+” value ([4]; 64 ug/Well) was 18.3, the “Mean Revertant Colony Counts TA-100 S9-” value ([4]; 64 ug/Well) was 28.7 and the “Mean Revertant Colony Counts TA-100 SP9+” value ([4]; 160 ug/Well) was 22.7. The “Mean Revertant Colony Counts TA-100 S9-” value ([4]; 160 ug/Well) was 25.0, the “Mean Revertant Colony Counts TA-100 SP9+” value ([4]; 400 ug/Well) was 17.7 and the “Mean Revertant Colony Counts TA-100 S9-” value ([4]; 400 ug/Well) was 21.0. For the same compound, the “fold increase in the mean number of revertant colonies, TA100” value [4] was less than 2 fold, the “Remaining Percentage of 60 min (%), Human, Tested Sample” value [5] was 64.2% and the “Remaining Percentage of 60 min (%), Human, Negative Control” value [5] was 97.7%. For the same compound, the “Remaining Percentage of 60 min (%), Human, Heat-inactivated Control” value [5] was 91.1%.

In the case of `CC(C)(C)c1cc(C(=O)Nc2ccc(C(=O)O)cc2Cl)c(O)c(C(C)(C)C)c1` [Compound 600453, 3-Chloro-4-[(3,5-di-tert-butyl-2-hydroxybenzene)amido]benzoic acid], the “Remaining Percentage of 60 min (%), Mouse, Tested Sample” value [1] is reported as 88.1%, the “Remaining Percentage of 60 min (%), Mouse, Negative Control” value [1] is reported as 109.7% and the “stability in MLM” value [1] is reported as “stable”. For the same compound, the “Remaining Percentage of 60 min (%), Mouse, Heat-inactivated Control” value [1] was 91.4%, the “Mean Revertant Colony Counts TA98 SP9+” value ([2]; 1.5 ug/Well) was 5.0 and the “Mean Revertant Colony Counts TA98 S9-” value ([2]; 1.5 ug/Well) was 4.3. The “Mean Revertant Colony Counts TA98 SP9+” value ([2]; 4 ug/Well) was 8.3, the “Mean Revertant Colony Counts TA98 S9-” value ([2]; 4 ug/Well) was 3.7 and the “Mean Revertant Colony Counts TA98 SP9+” value ([2]; 10 ug/Well) was 7.7. The “Mean Revertant Colony Counts TA98 S9-” value ([2]; 10 ug/Well) was 3.3, the “Mean Revertant Colony Counts TA98 SP9+” value ([2]; 25 ug/Well) was 6.3 and the “Mean Revertant Colony Counts TA98 S9-” value ([2]; 25 ug/Well) was 3.0. The “Mean Revertant Colony Counts TA98 SP9+” value ([2]; 64 ug/Well) was 8.7, the “Mean Revertant Colony Counts TA98 S9-” value ([2]; 64 ug/Well) was 6.0 and the “Mean Revertant Colony Counts TA98 SP9+” value ([2]; 160 ug/Well) was 6.3. The “Mean Revertant Colony Counts TA98 S9-” value ([2]; 160 ug/Well) was 3.7, the “Mean Revertant Colony Counts TA98 SP9+” value ([2]; 400 ug/Well) was 7.3 and the “Mean Revertant Colony Counts TA98 S9-” value ([2]; 400 ug/Well) was 2.0. For the same compound, the “Mean Revertant Colony Counts TA98 SP9+” value ([2]; 1000 ug/Well) was 4.0, the “Mean Revertant Colony Counts TA98 S9-” value ([2]; 1000 ug/Well) was 3.7 and the “fold increase in the mean number of revertant colonies, TA98” value ([2]; any concentration tested, vs negative control) was less than 2 fold. The IC50 (PH5CH8 liver cells; [6]) was 0.14 µM, the IC50 (PH5CH8 liver cells; [7]) was 0.091 µM and the Active/Inactive (PH5CH8 liver cells; [8]) was “Active”. The “concentration dependence of OCR change” value ([3]; four concentrations) was “significantly decreased OCR at all concentrations above 300nM”, the “Mean Revertant Colony Counts TA-100 SP9+” value ([4]; 1.5 ug/Well) was 17.3 and the “Mean Revertant Colony Counts TA-100 S9-” value ([4]; 1.5 ug/Well) was 35.0. The “Mean Revertant Colony Counts TA-100 SP9+” value ([4]; 4 ug/Well) was 21.3, the “Mean Revertant Colony Counts TA-100 S9-” value ([4]; 4 ug/Well) was 30.0 and the “Mean Revertant Colony Counts TA-100 SP9+” value ([4]; 10 ug/Well) was 27.0. The “Mean Revertant Colony Counts TA-100 S9-” value ([4]; 10 ug/Well) was 33.3, the “Mean Revertant Colony Counts TA-100 SP9+” value ([4]; 25 ug/Well) was 34.0 and the “Mean Revertant Colony Counts TA-100 S9-” value ([4]; 25 ug/Well) was 24.0. The “Mean Revertant Colony Counts TA-100 SP9+” value ([4]; 64 ug/Well) was 31.7, the “Mean Revertant Colony Counts TA-100 S9-” value ([4]; 64 ug/Well) was 26.3 and the “Mean Revertant Colony Counts TA-100 SP9+” value ([4]; 160 ug/Well) was 24.3. For the same compound, the “Mean Revertant Colony Counts TA-100 S9-” value ([4]; 160 ug/Well) was 21.3, the “Mean Revertant Colony Counts TA-100 SP9+” value ([4]; 400 ug/Well) was 29.3 and the “Mean Revertant Colony Counts TA-100 S9-” value ([4]; 400 ug/Well) was 8.0. The “Mean Revertant Colony Counts TA-100 SP9+” value ([4]; 1000 ug/Well) was 15.7, the “Mean Revertant Colony Counts TA-100 S9-” value ([4]; 1000 ug/Well) was 2.7 and the “fold increase in the mean number of revertant colonies, TA100” value [4] was less than 2 fold. For the same compound, the “Remaining Percentage of 60 min (%), Human, Tested Sample” value [5] was 58.8%, the “Remaining Percentage of 60 min (%), Human, Negative Control” value [5] was 92.2% and the “Remaining Percentage of 60 min (%), Human, Heat-inactivated Control” value [5] was 93.7%.
